Measurements as given in patent publication US20220371988A1, “TRPV1 AGONIST AND PREPARATION METHOD THEREFOR AND USE THEREOF” (NANJING DELOVA BIOTECH CO. LTD., priority 2019, published 2022).
In brackets after ≈: the same amount, converted by molar mass. Like-named read-outs stand apart in the source and are kept apart here.

Assays:
[1] = system: rats as models of pain after incision; experiment: Mechanical allodynia test (Von Frey method) in rats as models of pain after incision; type: in vivo, SD rat
[2] = parent drug, cited from earlier work
[3] = system: rats as models of pain after incision; experiment: Thermal hyperalgesia test (Hargreaves method) in rats as models of pain after incision; type: in vivo, SD rat
[4] = HD group: A-17 0.6 mg/animal, parent 0.36 mg/animal
[5] = LD group: A-17 0.15 mg/animal, parent 0.09 mg/animal

COc1cc(CNC(=O)CCCC/C=C/C(C)C)ccc1O [trans-8-methyl-N-vanillyl-6-nonenamide]
Time after surgery at which paw withdrawal threshold (PWT) was increased vs blank preparation group (P<0.05) [1, 4]: 4 h
Time after surgery at which paw withdrawal threshold (PWT) was increased vs blank preparation group (P<0.05) [1, 5]: no significant effect
Solubility in water ([2]; at 25° C.): 8.41 µg/mL (≈ 27.5 µM)
Log P [2]: 3.8
Effect on overall thermal hyperalgesia (AUC of time-TWL curve) within 7 days vs blank preparation ([3]; HD group: A-17 0.6 mg/animal (P<0.001), parent 0.36 mg/animal (P<0.01)): effective in relieving the overall thermal hyperalgesia
Duration of analgesic effect on thermal hyperalgesia [3, 4]: 3 days
Effect on overall thermal hyperalgesia (AUC of time-TWL curve) within 7 days vs blank preparation [3, 5]: no significant effect
Time after surgery at which thermal withdrawal latency (TWL) was increased vs blank preparation group (P<0.05) ([3]; LD group: A-17 0.15 mg/animal, parent 0.09 mg/animal, injection at incision site): 1 h

(E)-2-methoxy-4-(8-methylnonanamide)phenyl 2-([[1,4′-bipiperidin]-1′-yl) propanoate hydrochloride [Compound A-16]
Release half-life t1/2 (pH 4.5): About 73 h
Release half-life t1/2 (pH 7.4): About 157 h
